{"source": "ChEMBL document CHEMBL1212929", "about": "“Glucosylated deferiprone and its brain uptake: implications for developing glucosylated hydroxypyridinone analogues intended to cross the blood-brain barrier” (J Med Chem, 2010)", "key": {"[1]": {"assay": "Biodistribution in Dunkin-Hartley guinea pig brain at 800 uM, iv after 20 mins using [3H]mannitol vascular space marker by scintillation counting", "assay_type": "ADME, organism-based, Cavia porcellus", "conditions": "in vivo"}, "[2]": {"assay": "Biodistribution in Dunkin-Hartley guinea pig brain parenchyma at 800 uM, iv after 20 mins using [3H]mannitol vascular space marker by scintillation counting", "assay_type": "ADME, organism-based, Cavia porcellus", "conditions": "in vivo"}}}
{"molecule": "Cc1c(O[C@@H]2O[C@H](CO)[C@@H](O)[C@H](O)[C@H]2O)c(=O)ccn1C", "values": [{"measurement": "Drug uptake", "setting": "[1]", "result": "< 0.001", "unit": "mL/g"}, {"measurement": "Drug uptake", "setting": "[2]", "result": "< 0.001", "unit": "mL/g"}]}
{"molecule": "Cc1c(O)c(=O)ccn1C", "note": "[DEFERIPRONE]", "values": [{"measurement": "Drug uptake", "setting": "[1]", "result": 0.052, "unit": "mL/g"}, {"measurement": "Drug uptake", "setting": "[2]", "result": 0.044, "unit": "mL/g"}]}
